Results on 12 compounds are retold here after PubChem BioAssay (NCI).

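Interpolation was linear, between the two tested concentrations surrounding the appropriate level; five concentrations were tested over 48 hours in 96-well plates. GI50 is the concentration that inhibits growth by half. TGI denotes the concentration required for complete inhibition of growth.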 Bounds are passed on as bounds.

Among the test systems are A549 NSCLC; ACHN renal; BT-549 breast; DU-145 prostate; K-562 leukemia; MCF7 breast; NCI-H23 lung; NCI/ADR-RES ovarian; SK-OV-3 ovarian; SR leukemia.
Holding throughout (test): NCI-60 cell line screen, 48 h

On to `Nc1nc(N)c2cc(Sc3cccc(C(F)(F)F)c3)ccc2n1`, for which the TGI in the assay on A549 NSCLC turned out to be 13.2 µM; in the assay with ACHN renal, 14.7 µM; with BT-549 breast, 20.5 µM; in the assay on DU-145 prostate, 14.4 µM; in the assay with K-562 leukemia, 1.92 µM; in the assay on MCF7 breast, 16.2 µM. In addition, the TGI with NCI-H23 lung came out at 16.4 µM; in the assay on NCI/ADR-RES ovarian, 14.8 µM; with SK-OV-3 ovarian it was 21 µM; in the assay with SR leukemia it was 4.71 µM.
On to `N#CN1CC[C@H](C(=O)Nc2cc3cc(C(N)=O)ccc3cn2)C1`, for which the GI50 was 0.527 µM in the assay with A549 NSCLC; 0.333 µM in the assay with ACHN renal; 0.0357 µM with BT-549 breast; 0.357 µM in the assay on DU-145 prostate; 0.131 µM in the assay with K-562 leukemia; 0.0214 µM with MCF7 breast. The GI50 was 0.13 µM with NCI-H23 lung, 0.192 µM in the assay with NCI/ADR-RES ovarian, 0.37 µM with SK-OV-3 ovarian and 0.0347 µM with SR leukemia. For the same compound, the TGI in the assay on A549 NSCLC is greater than 100 µM; in the assay on BT-549 breast, 0.23 µM; with DU-145 prostate it was greater than 65.4 µM; in the assay on K-562 leukemia it was greater than 54.2 µM; in the assay with MCF7 breast, greater than 100 µM; in the assay with NCI-H23 lung, 2.05 µM. Moreover, the TGI in the assay with NCI/ADR-RES ovarian and in the assay on SK-OV-3 ovarian was greater than 100 µM throughout.
Regarding `NC(=S)N=Nc1c(O)c2ccccc2c2ccccc12`, the GI50 in the assay with A549 NSCLC was 3.44 µM; in the assay with ACHN renal, 8.07 µM; in the assay on BT-549 breast, 1.97 µM; in the assay on DU-145 prostate, 1.9 µM; with K-562 leukemia, 5.98 µM; in the assay on MCF7 breast, 1.88 µM. In addition, the GI50 with NCI-H23 lung was 2.26 µM; in the assay with NCI/ADR-RES ovarian, 4.3 µM; with SK-OV-3 ovarian, 21.5 µM; with SR leukemia, 9.64 µM. The TGI is 12.1 µM in the assay on A549 NSCLC; greater than 100 µM in the assay on ACHN renal; 4.95 µM in the assay on BT-549 breast; 3.36 µM in the assay on DU-145 prostate; 28.3 µM in the assay on K-562 leukemia; 4.54 µM with MCF7 breast. Moreover, the TGI in the assay on NCI-H23 lung was found to be 6.1 µM; in the assay with NCI/ADR-RES ovarian it was 27 µM; in the assay with SK-OV-3 ovarian, 54.2 µM; in the assay on SR leukemia, 35.8 µM.
As to `Nc1nc(=O)n([C@@H]2CS[C@H](CO)O2)cc1F`, the GI50 in the assay on A549 NSCLC, in the assay on ACHN renal, in the assay with BT-549 breast, in the assay on DU-145 prostate, in the assay with K-562 leukemia and with MCF7 breast was greater than 100 µM each time. In addition, the GI50 in the assay with NCI-H23 lung, in the assay with NCI/ADR-RES ovarian, in the assay with SK-OV-3 ovarian and with SR leukemia was greater than 100 µM throughout. The TGI with A549 NSCLC, with ACHN renal, with BT-549 breast, in the assay on DU-145 prostate, in the assay on K-562 leukemia and in the assay on MCF7 breast was greater than 100 µM in each case. For the same compound, the TGI with NCI-H23 lung, with NCI/ADR-RES ovarian, with SK-OV-3 ovarian and with SR leukemia was greater than 100 µM throughout.
With `CCOC(=O)/C=C/C(=O)[C@H](CC(C)C)NC(=O)[C@H](Cc1ccccc1)NC(=O)OCc1ccccc1`, the GI50 was 20.7 µM in the assay on A549 NSCLC; 2.36 µM in the assay on ACHN renal; 14.4 µM in the assay with BT-549 breast; 3.1 µM with DU-145 prostate; 2.09 µM in the assay on K-562 leukemia; 1.73 µM in the assay with MCF7 breast. The GI50 with NCI-H23 lung is 11.3 µM; in the assay with NCI/ADR-RES ovarian, 12.3 µM; in the assay on SK-OV-3 ovarian it was 18.6 µM; with SR leukemia it was 2.39 µM. In addition, the TGI worked out at 39.6 µM in the assay with A549 NSCLC; 5.72 µM in the assay on ACHN renal; 27.6 µM in the assay with BT-549 breast; 11.5 µM in the assay on DU-145 prostate; 10.5 µM in the assay with K-562 leukemia; 4.8 µM in the assay with MCF7 breast. In addition, the TGI in the assay with NCI-H23 lung was determined as 32.8 µM; with NCI/ADR-RES ovarian, 93.1 µM; with SK-OV-3 ovarian it was 32.6 µM; in the assay on SR leukemia it was 6.32 µM.
As for `C#COc1cccc(Nc2ncnc3cc(NC(=O)[C@H](C)Cl)ccc23)c1`, the GI50 with A549 NSCLC was 3.18 µM; in the assay with ACHN renal, 3.05 µM; with BT-549 breast, 3.22 µM; in the assay with DU-145 prostate it was 6.09 µM; in the assay with K-562 leukemia, 2.03 µM; in the assay on MCF7 breast, 6.08 µM. In addition, the GI50 in the assay with NCI-H23 lung is 7.66 µM; in the assay with NCI/ADR-RES ovarian it was 2.4 µM; with SK-OV-3 ovarian, 13 µM; in the assay on SR leukemia it was 2.87 µM. The TGI in the assay on A549 NSCLC, in the assay with ACHN renal, in the assay on BT-549 breast, in the assay on DU-145 prostate, in the assay on K-562 leukemia and in the assay with MCF7 breast was greater than 62.5 µM each time. Besides, the TGI with NCI-H23 lung, in the assay on NCI/ADR-RES ovarian, with SK-OV-3 ovarian and in the assay with SR leukemia was greater than 62.5 µM throughout.
With `CC1=C[C@H]2C[C@H](C)[C@H]3CC[C@H](C)[C@]4(C1)C(=O)C(O)=C(C)C(=O)[C@@]324`, the GI50 in the assay with A549 NSCLC is 28.5 µM; with ACHN renal, 34.2 µM; in the assay on BT-549 breast it was 46 µM; with DU-145 prostate it was 43.3 µM; in the assay with K-562 leukemia it was 20 µM; in the assay on MCF7 breast, greater than 100 µM. Also, the GI50 in the assay on NCI-H23 lung was 11 µM; in the assay with NCI/ADR-RES ovarian, 17.2 µM; with SK-OV-3 ovarian, 45.1 µM; with SR leukemia, 27.4 µM. Moreover, the TGI was greater than 100 µM with A549 NSCLC; greater than 100 µM in the assay with ACHN renal; greater than 100 µM in the assay with BT-549 breast; greater than 100 µM in the assay on DU-145 prostate; 39.5 µM with K-562 leukemia; greater than 100 µM with MCF7 breast. In addition, the TGI in the assay with NCI-H23 lung was 29.7 µM; with NCI/ADR-RES ovarian, 48.4 µM; in the assay with SK-OV-3 ovarian, greater than 100 µM; in the assay on SR leukemia, 82.6 µM.
As for `COc1ccc(Cn2cc3c(c2-c2ccccc2)CCc2cnoc2-3)cc1N`, the GI50 in the assay with A549 NSCLC was 0.224 µM; with ACHN renal, 1.11 µM; with BT-549 breast, 3.01 µM; in the assay on DU-145 prostate, 0.21 µM; in the assay on K-562 leukemia, 0.0452 µM; in the assay on MCF7 breast, 0.05 µM. Besides, the GI50 with NCI-H23 lung is 0.441 µM; in the assay with NCI/ADR-RES ovarian it was 0.0828 µM; in the assay with SK-OV-3 ovarian, 0.252 µM; in the assay on SR leukemia, 0.0528 µM. The TGI is greater than 100 µM in the assay with A549 NSCLC; greater than 100 µM in the assay on ACHN renal; greater than 100 µM with BT-549 breast; 1.27 µM in the assay with DU-145 prostate; greater than 100 µM in the assay with K-562 leukemia; greater than 100 µM in the assay with MCF7 breast. For the same compound, the TGI was greater than 100 µM with NCI-H23 lung, greater than 100 µM with SK-OV-3 ovarian and 4.25 µM in the assay on SR leukemia.
For `CC(=O)OC1CC[C@@]2(C)C(CC[C@]3(C)C2CC=C2[C@@H]4C(C)[C@H](C)CCC4(C)CCC23C)[C@@]1(C)C(=O)O` (some centres not stated), the TGI in the assay on A549 NSCLC turned out to be 45.6 µM; in the assay with ACHN renal, 36.8 µM; in the assay with BT-549 breast, 49.8 µM; with DU-145 prostate it was 33.2 µM; with K-562 leukemia it was 86.9 µM; in the assay on MCF7 breast it was 25.8 µM. The TGI with NCI-H23 lung came out at 51.6 µM; in the assay on NCI/ADR-RES ovarian, 45 µM; with SK-OV-3 ovarian, 40.4 µM; in the assay on SR leukemia it was 70.6 µM.
For `O=C(Nc1ccccc1O)c1ccc(NS(=O)(=O)c2cccc3cccnc23)cc1`, the GI50 with A549 NSCLC is 2.03 µM; in the assay on ACHN renal it was 1.21 µM; in the assay on BT-549 breast it was 2.79 µM; in the assay with DU-145 prostate, 1.27 µM; with K-562 leukemia, 0.971 µM; with MCF7 breast, 0.941 µM. Moreover, the GI50 is 2.02 µM in the assay on NCI-H23 lung, 0.788 µM in the assay with NCI/ADR-RES ovarian, 1.32 µM in the assay with SK-OV-3 ovarian and 1.31 µM in the assay on SR leukemia. Also, the TGI is 9.02 µM with A549 NSCLC; 5.78 µM in the assay on ACHN renal; 7.94 µM in the assay with BT-549 breast; 9.55 µM in the assay with DU-145 prostate; greater than 25 µM in the assay on K-562 leukemia; greater than 18.2 µM with MCF7 breast. In addition, the TGI in the assay with NCI-H23 lung is 13.7 µM; with NCI/ADR-RES ovarian, 5.96 µM; with SK-OV-3 ovarian it was 6.17 µM; in the assay on SR leukemia it was 13.9 µM.
`O=C(Nc1cc(Oc2cc(F)c(NC(=O)C3(C(=O)Nc4ccc(F)cc4)CC3)cc2F)ccn1)C1CC1`: the GI50 with A549 NSCLC is 3.21 µM; with ACHN renal it was 2.87 µM; in the assay with BT-549 breast, 3.07 µM; in the assay with DU-145 prostate it was 3.27 µM; in the assay with K-562 leukemia, 1.9 µM; with MCF7 breast it was 0.936 µM. Besides, the GI50 with NCI-H23 lung is 1.31 µM; in the assay with NCI/ADR-RES ovarian, 2.79 µM; in the assay on SK-OV-3 ovarian it was 4.04 µM; in the assay on SR leukemia it was 1.7 µM. The TGI with A549 NSCLC was greater than 36.6 µM; in the assay on ACHN renal it was greater than 100 µM; in the assay with BT-549 breast it was 7.09 µM; with DU-145 prostate it was greater than 100 µM; with K-562 leukemia, greater than 100 µM; in the assay with MCF7 breast it was 9.55 µM. Also, the TGI was 6.02 µM with NCI-H23 lung, 8.73 µM with NCI/ADR-RES ovarian, greater than 29.9 µM in the assay with SK-OV-3 ovarian and 5.38 µM in the assay on SR leukemia.
As to `O=c1oc2ccc(-c3ccc(F)cc3F)cc2c(=O)n1-c1ccc(Cl)c(C(F)(F)F)c1`, the GI50 with A549 NSCLC was 3.33 µM; in the assay with ACHN renal it was 3.12 µM; in the assay on BT-549 breast it was 2.06 µM; with DU-145 prostate it was 3.75 µM; in the assay on K-562 leukemia, 2.38 µM; in the assay with MCF7 breast it was 2.45 µM. The GI50 with NCI-H23 lung is 1.83 µM; in the assay on NCI/ADR-RES ovarian, 2.49 µM; with SK-OV-3 ovarian, 2.01 µM; with SR leukemia, 2.43 µM. The TGI is greater than 100 µM in the assay with A549 NSCLC; 9.8 µM in the assay with ACHN renal; 5.17 µM in the assay with BT-549 breast; greater than 100 µM with DU-145 prostate; greater than 100 µM in the assay on K-562 leukemia; greater than 100 µM with MCF7 breast. The TGI came to 4.59 µM with NCI-H23 lung, 8.89 µM in the assay on NCI/ADR-RES ovarian, 5.17 µM in the assay with SK-OV-3 ovarian and 8.8 µM in the assay on SR leukemia.
